Reference: ChEMBL document CHEMBL5291721, “A preclinical secondary pharmacology resource illuminates target-adverse drug reaction associations of marketed drugs” (Nat Commun, 2023)

Key:
[1] = target: Bile salt export pump (Homo sapiens, UniProt O95342); assay type: functional
[2] = target: Voltage-gated inwardly rectifying potassium channel KCNH2 (Homo sapiens, UniProt Q12809); assay type: functional
[3] = target: T1, Amine oxidase [flavin-containing] A (Homo sapiens, UniProt P21397); assay type: functional
T1 sequence (P21397 whole entry): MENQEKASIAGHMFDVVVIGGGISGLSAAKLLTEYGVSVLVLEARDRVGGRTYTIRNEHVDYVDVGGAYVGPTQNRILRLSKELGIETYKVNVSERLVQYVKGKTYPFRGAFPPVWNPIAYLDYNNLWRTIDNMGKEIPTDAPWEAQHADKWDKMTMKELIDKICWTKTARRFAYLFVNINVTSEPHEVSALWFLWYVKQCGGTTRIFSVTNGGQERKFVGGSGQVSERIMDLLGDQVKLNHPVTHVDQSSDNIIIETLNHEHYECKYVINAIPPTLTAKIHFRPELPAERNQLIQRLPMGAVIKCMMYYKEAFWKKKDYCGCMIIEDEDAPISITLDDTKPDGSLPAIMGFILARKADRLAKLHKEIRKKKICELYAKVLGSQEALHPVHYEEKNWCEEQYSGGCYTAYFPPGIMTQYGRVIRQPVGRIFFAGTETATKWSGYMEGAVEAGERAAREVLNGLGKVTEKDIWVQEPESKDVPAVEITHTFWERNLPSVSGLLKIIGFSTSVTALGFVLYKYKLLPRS

[4] = target: T2, Prostaglandin G/H synthase 1 (Homo sapiens, UniProt P23219); assay type: functional
[5] = target: T2, Prostaglandin G/H synthase 1; assay type: functional; remark: listed apart in the source
[6] = target: Histamine H3 receptor (Homo sapiens, UniProt Q9Y5N1)
[7] = target: cGMP-inhibited 3',5'-cyclic phosphodiesterase 3A (Homo sapiens, UniProt Q14432); assay type: functional
[8] = target: Acetylcholinesterase (Homo sapiens, UniProt P22303); assay type: functional
[9] = target: T3, Muscarinic acetylcholine receptor M2 (Homo sapiens, UniProt P08172)
T3 sequence (P08172 whole entry): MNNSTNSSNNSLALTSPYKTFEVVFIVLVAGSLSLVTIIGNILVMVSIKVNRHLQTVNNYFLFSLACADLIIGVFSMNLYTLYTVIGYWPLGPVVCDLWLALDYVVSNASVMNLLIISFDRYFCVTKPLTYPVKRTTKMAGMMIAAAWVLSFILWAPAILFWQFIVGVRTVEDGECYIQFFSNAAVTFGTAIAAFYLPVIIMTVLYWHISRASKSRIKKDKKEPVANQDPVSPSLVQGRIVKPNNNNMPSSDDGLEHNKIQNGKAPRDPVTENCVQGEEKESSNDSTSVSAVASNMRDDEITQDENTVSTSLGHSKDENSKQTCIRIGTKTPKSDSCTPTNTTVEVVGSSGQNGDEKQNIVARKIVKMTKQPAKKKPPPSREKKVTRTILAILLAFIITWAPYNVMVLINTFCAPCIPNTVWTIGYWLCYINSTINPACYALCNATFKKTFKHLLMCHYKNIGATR

[10] = target: T4, Thromboxane A2 receptor (Homo sapiens, UniProt P21731); assay type: functional, cell-based
T4 sequence (P21731 whole entry): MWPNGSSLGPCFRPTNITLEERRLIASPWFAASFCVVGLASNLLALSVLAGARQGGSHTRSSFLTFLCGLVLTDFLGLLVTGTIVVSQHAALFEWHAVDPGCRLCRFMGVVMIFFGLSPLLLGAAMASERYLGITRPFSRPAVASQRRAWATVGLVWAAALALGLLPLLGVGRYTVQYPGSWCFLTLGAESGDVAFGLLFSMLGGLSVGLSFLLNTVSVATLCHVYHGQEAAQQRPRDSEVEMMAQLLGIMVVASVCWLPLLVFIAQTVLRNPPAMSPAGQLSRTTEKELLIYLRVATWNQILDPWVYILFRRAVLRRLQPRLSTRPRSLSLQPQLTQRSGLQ

[11] = target: D(1A) dopamine receptor (Homo sapiens, UniProt P21728)
[12] = target: Prothrombin (Homo sapiens, UniProt P00734); assay type: functional
[13] = target: Mu-type opioid receptor (Homo sapiens, UniProt P35372)
[14] = target: D(3) dopamine receptor (Homo sapiens, UniProt P35462)
[15] = target: 3',5'-cyclic-AMP phosphodiesterase 4A (Homo sapiens, UniProt P27815); assay type: functional
[16] = target: T5, Progesterone receptor (Homo sapiens, UniProt P06401)
T5 sequence (P06401 whole entry): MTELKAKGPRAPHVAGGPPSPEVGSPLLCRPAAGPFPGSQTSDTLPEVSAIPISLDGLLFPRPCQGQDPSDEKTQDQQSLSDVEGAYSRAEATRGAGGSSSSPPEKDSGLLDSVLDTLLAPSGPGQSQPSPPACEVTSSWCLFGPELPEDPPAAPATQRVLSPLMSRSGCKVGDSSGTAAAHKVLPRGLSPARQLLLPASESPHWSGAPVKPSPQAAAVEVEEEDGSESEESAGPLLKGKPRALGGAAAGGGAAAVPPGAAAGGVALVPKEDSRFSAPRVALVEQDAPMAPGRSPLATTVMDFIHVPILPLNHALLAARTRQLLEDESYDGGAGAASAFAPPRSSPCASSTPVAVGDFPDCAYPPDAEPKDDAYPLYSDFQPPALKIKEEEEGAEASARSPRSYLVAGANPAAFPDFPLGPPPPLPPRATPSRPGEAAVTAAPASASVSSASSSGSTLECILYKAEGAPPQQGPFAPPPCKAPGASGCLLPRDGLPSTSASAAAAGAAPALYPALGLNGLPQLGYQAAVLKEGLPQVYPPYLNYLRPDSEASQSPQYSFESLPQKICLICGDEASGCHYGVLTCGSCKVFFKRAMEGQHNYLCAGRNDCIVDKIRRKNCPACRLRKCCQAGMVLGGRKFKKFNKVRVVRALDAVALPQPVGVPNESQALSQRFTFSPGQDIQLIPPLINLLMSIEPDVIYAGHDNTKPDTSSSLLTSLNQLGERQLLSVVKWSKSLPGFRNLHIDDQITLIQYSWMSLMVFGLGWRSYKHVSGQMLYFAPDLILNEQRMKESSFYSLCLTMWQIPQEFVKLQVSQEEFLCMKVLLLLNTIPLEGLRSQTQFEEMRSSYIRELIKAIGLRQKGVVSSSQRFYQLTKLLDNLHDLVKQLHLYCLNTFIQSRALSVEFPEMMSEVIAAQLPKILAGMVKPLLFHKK
Note: assay procedure not described here.

Sequence of D(1A) dopamine receptor (P21728 whole entry): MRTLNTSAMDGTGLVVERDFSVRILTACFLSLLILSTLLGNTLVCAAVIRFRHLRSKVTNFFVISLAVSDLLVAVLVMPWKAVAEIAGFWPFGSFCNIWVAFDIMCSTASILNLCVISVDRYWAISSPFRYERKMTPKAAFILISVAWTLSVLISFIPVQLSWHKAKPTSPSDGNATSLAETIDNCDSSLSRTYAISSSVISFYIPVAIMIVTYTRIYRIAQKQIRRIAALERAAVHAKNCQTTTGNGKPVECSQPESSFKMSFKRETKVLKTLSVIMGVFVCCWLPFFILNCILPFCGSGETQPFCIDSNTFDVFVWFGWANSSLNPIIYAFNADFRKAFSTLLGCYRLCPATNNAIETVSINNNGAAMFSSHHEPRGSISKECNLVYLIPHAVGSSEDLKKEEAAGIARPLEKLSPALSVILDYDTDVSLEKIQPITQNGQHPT
T2 sequence (P23219 whole entry): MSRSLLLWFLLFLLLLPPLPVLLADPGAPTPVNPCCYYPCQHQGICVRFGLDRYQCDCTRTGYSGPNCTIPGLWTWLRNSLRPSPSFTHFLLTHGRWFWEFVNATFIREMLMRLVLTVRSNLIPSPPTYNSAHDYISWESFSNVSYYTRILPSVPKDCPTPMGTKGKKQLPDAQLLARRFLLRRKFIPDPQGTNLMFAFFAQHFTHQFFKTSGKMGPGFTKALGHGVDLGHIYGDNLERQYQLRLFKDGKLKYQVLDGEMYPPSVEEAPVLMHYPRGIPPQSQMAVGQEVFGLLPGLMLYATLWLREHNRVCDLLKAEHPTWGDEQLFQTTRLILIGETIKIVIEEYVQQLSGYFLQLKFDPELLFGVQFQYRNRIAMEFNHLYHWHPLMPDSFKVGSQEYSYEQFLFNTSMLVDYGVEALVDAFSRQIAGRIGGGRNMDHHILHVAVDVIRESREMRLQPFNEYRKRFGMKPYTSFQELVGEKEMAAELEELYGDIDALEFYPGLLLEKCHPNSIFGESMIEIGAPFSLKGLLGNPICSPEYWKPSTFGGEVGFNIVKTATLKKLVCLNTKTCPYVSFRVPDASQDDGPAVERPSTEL
Sequence of D(3) dopamine receptor (P35462 whole entry): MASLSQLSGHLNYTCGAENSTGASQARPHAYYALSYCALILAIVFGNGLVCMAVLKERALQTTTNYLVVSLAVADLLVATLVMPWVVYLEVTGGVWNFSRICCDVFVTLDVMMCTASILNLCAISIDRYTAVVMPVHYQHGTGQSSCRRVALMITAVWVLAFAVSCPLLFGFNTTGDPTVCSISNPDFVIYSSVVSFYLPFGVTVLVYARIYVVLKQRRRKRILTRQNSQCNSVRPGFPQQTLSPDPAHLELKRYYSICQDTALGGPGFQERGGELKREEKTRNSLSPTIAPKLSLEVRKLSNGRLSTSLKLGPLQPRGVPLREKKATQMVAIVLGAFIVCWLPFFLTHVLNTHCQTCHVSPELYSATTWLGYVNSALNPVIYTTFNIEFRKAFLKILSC
Sequence of Bile salt export pump (O95342 whole entry): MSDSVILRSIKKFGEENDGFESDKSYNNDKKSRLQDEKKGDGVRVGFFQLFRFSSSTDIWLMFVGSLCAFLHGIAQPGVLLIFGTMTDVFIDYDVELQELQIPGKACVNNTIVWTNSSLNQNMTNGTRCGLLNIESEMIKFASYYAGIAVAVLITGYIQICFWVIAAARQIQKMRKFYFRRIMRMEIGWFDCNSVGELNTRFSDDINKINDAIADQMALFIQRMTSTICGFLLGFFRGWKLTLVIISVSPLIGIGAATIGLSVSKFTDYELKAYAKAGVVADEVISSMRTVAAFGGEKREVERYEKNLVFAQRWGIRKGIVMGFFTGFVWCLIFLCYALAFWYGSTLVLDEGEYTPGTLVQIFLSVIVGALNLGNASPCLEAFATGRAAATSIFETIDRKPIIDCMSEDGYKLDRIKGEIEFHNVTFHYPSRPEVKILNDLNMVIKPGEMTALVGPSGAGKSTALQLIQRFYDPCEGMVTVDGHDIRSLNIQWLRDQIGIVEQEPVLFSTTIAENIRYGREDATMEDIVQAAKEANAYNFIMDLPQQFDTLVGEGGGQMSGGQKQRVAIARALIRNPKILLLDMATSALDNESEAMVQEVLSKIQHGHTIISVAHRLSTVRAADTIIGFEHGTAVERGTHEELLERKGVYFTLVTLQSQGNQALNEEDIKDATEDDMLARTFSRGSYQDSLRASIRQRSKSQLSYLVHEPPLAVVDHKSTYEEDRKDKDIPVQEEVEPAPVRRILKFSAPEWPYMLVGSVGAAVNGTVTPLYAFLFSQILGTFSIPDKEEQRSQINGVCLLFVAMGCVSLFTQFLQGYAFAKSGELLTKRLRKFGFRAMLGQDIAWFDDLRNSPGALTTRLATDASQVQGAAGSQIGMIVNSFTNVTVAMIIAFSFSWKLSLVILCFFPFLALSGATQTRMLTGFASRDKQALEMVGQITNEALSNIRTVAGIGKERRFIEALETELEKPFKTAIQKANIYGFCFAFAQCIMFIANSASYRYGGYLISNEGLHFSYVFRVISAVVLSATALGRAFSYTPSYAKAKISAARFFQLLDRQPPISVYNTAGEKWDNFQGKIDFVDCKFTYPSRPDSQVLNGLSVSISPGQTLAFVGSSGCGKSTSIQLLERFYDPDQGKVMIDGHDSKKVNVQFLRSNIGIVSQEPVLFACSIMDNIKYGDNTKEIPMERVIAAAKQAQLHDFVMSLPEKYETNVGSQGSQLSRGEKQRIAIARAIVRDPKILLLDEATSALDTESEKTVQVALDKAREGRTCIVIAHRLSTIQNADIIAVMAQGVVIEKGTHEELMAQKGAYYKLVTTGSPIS
Sequence of Acetylcholinesterase (P22303 whole entry): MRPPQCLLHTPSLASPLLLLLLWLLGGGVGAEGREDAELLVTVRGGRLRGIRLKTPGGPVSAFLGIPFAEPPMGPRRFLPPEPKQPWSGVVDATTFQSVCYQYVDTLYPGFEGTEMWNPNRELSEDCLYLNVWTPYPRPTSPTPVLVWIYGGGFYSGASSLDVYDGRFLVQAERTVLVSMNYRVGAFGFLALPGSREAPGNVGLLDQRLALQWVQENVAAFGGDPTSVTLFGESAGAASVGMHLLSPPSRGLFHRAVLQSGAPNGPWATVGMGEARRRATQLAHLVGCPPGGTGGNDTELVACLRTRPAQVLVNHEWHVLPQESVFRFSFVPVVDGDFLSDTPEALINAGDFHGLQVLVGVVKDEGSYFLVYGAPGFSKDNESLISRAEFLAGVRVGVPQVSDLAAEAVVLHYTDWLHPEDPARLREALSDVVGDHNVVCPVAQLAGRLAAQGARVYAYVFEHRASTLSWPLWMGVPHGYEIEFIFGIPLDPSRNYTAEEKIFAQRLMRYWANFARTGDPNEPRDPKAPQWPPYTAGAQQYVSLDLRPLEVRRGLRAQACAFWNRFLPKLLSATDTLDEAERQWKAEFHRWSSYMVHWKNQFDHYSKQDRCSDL
Sequence of Histamine H3 receptor (Q9Y5N1 whole entry): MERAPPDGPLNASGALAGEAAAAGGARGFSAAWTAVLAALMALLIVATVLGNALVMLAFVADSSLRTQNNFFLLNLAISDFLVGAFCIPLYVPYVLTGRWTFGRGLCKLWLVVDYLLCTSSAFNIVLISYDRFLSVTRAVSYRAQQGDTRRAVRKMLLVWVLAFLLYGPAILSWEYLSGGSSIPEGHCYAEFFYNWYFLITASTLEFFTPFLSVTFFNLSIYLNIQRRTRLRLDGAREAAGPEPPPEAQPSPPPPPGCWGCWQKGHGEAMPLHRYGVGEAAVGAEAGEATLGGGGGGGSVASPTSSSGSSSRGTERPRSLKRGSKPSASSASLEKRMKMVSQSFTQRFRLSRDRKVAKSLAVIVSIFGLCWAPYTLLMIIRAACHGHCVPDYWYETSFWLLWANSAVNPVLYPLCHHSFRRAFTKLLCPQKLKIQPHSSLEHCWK
Sequence of cGMP-inhibited 3',5'-cyclic phosphodiesterase 3A (Q14432 whole entry): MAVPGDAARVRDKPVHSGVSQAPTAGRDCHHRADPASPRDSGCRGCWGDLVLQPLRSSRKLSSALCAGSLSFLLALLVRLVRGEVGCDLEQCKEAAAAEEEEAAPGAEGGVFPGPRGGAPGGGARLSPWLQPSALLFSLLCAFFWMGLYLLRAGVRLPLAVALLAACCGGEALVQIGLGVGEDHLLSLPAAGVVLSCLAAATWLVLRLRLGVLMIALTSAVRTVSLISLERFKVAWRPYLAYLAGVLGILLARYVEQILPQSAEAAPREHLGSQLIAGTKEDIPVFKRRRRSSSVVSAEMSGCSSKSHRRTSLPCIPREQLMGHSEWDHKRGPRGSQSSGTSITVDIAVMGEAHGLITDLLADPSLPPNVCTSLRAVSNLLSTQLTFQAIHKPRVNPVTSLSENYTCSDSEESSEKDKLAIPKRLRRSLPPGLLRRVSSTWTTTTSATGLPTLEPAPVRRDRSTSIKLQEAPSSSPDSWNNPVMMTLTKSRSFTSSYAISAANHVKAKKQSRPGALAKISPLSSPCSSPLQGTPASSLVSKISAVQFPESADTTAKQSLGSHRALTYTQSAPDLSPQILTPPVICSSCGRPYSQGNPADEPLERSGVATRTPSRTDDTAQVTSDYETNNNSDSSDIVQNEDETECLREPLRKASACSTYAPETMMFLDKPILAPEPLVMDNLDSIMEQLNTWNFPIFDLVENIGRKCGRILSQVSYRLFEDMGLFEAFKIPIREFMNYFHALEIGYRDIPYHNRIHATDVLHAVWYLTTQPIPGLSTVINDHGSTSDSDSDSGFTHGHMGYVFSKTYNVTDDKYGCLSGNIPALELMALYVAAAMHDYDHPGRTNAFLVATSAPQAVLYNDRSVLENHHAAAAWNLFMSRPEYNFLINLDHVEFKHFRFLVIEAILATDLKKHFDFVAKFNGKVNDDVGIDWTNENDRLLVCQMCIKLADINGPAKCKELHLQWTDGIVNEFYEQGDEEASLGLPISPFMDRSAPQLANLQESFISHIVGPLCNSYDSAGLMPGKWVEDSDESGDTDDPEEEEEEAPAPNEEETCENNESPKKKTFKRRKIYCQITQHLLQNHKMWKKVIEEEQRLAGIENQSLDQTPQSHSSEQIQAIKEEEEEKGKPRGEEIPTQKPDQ

Row | Compound | AC50 [1] [µM] | AC50 [2] [µM] | AC50 [3] [µM] | AC50 [4] [µM] | AC50 [5] [µM] | AC50 [6] [µM] | AC50 [7] [µM] | AC50 [8] [µM] | AC50 [9] [µM] | AC50 [10] [µM] | AC50 [11] [µM] | AC50 [12] [µM] | AC50 [13] [µM] | AC50 [14] [µM] | AC50 [15] [µM] | AC50 [16] [µM]
1 | CC(C)N(CCC(C(N)=O)(c1ccccc1)c1ccccn1)C(C)C (stereo not given) [DISOPYRAMIDE] | > 300 | – | – | – | – | – | – | – | – | – | – | – | – | – | – | –
2 | CC(N)C12CC3CC(CC(C3)C1)C2 (stereo not given) [RIMANTADINE] | > 300 | > 30 | – | – | – | – | – | – | – | – | – | – | – | – | – | –
3 | CCN(CC)CCNC(=O)c1c(C)[nH]c(/C=C2\C(=O)Nc3ccc(F)cc32)c1C [SUNITINIB] | 34 | – | – | – | – | – | – | – | – | – | – | – | – | – | – | –
4 | COc1ccccc1OCCNCC(O)COc1cccc2[nH]c3ccccc3c12 (stereo not given) [CARVEDILOL] | 79 | – | – | – | – | – | – | – | – | – | – | – | – | – | – | –
5 | CNC(=O)Oc1cccc2ccccc12 [CARBARIL] | – | > 30 | > 30 | 3.71 | 4.19 | > 30 | > 30 | > 30 | > 30 | > 30 | > 30 | > 30 | > 30 | > 30 | > 30 | 14.3
6 | CC(C)OC(=O)CCC/C=C\C[C@@H]1[C@@H](/C=C/C(F)(F)COc2ccccc2)[C@H](O)C[C@@H]1O [TAFLUPROST] | – | > 30 | > 30 | > 30 | > 30 | > 30 | > 30 | > 30 | > 30 | 29.6 | > 30 | > 30 | > 30 | > 30 | > 30 | > 30
7 | C[C@H]1O[C@@H](n2cc(F)c(=O)[nH]c2=O)[C@H](O)[C@@H]1O [DOXIFLURIDINE] | – | > 30 | > 30 | > 30 | > 30 | > 30 | > 30 | > 30 | > 30 | > 30 | > 30 | > 30 | > 30 | > 30 | > 30 | > 30
8 | CN(C)CCC[C@@]1(c2ccc(F)cc2)OCc2cc(C#N)ccc21 [ESCITALOPRAM] | > 300 | – | – | – | – | – | – | – | – | – | – | – | – | – | – | –
9 | CC(=O)O[C@]1(C(C)=O)CC[C@H]2[C@@H]3C=C(C)C4=CC(=O)CC[C@@H]4[C@H]3CC[C@@]21C [NOMEGESTROL ACETATE] | – | > 30 | > 30 | > 30 | > 30 | > 30 | > 30 | > 30 | > 30 | > 10 | > 30 | > 30 | > 30 | > 30 | > 30 | 0.003
10 | N[C@@H](CC(=O)N1CCn2c(nnc2C(F)(F)F)C1)Cc1cc(F)c(F)cc1F [SITAGLIPTIN] | > 300 | – | – | – | – | – | – | – | – | – | – | – | – | – | – | –
11 | C=C[C@H]1C[N@@]2CC[C@H]1C[C@@H]2[C@@H](O)c1ccnc2ccc(OC)cc12 [QUINIDINE] | 64 | – | – | – | – | – | – | – | – | – | – | – | – | – | – | –
12 | CCn1cc(C(=O)O)c(=O)c2cc3c(cc21)OCO3 [OXOLINIC ACID] | – | > 30 | > 30 | > 30 | > 30 | > 30 | > 30 | > 30 | > 30 | > 30 | > 30 | > 30 | > 30 | > 30 | > 30 | > 30
13 | FC(F)(F)c1ccc(CNc2ccc(Cc3c[nH]c4ncc(Cl)cc34)cn2)cn1 [PEXIDARTINIB] | – | 8.6 | > 30 | > 30 | > 30 | > 30 | > 30 | > 30 | 0.496 | 8.61 | 20.2 | > 30 | 13.4 | 10.2 | > 30 | 9.95
14 | CN(C)CC[C@@H](c1ccc(Cl)cc1)c1ccccn1 [DEXCHLORPHENIRAMINE] | > 300 | – | – | – | – | – | – | – | – | – | – | – | – | – | – | –
15 | CN(CC1(C)CCCO1)S(=O)(=O)c1ccc(Cl)c(S(N)(=O)=O)c1 (stereo not given) [MEFRUSIDE] | – | > 30 | > 30 | > 30 | > 30 | > 30 | > 30 | > 30 | > 30 | > 30 | > 30 | > 30 | > 30 | > 30 | > 30 | > 30
16 | N[C@@H](CO)C(=O)O [SERINE] | – | > 30 | > 10 | > 30 | > 30 | > 30 | > 30 | > 30 | > 30 | > 30 | > 30 | > 30 | > 30 | > 30 | > 30 | > 30
17 | CC(CCc1ccccc1)NCC(O)c1ccc(O)c(C(N)=O)c1 (stereo not given) [LABETALOL] | – | > 30 | > 30 | > 30 | > 30 | > 30 | > 30 | > 30 | > 30 | > 30 | > 30 | > 30 | 2.42 | 5.85 | > 30 | > 30
18 | C[C@@H](Oc1cc(-c2cnn(C3CCNCC3)c2)cnc1N)c1c(Cl)ccc(F)c1Cl [CRIZOTINIB] | 154 | – | – | – | – | – | – | – | – | – | – | – | – | – | – | –
19 | [H]/N=C(\N/C(=N/[H])Nc1ccc(Cl)cc1)NC(C)C [PROGUANIL] | – | 19 | > 30 | > 30 | > 30 | > 30 | > 30 | > 30 | > 30 | > 30 | 8.26 | > 30 | > 30 | > 30 | > 30 | > 30
